Source: publication PMC8968665, “Verteporfin is a substrate-selective γ-secretase inhibitor that binds the amyloid precursor protein transmembrane domain” (The Journal of Biological Chemistry, 2022)
Entries after “also recorded” stand apart in the source; their conditions may differ.

How the values were obtained:
[1] = test system: T1, Notch-1 TM/JM (residues 1721–1771); experiment: TROSY NMR titration of Notch-1 TM/JM by verteporfin; assay type: binding
T1 construct: flanked by its juxtamembrane segments (residues 1721–1771, “Notch-1 TM/JM”); made in house; host or cells: E. coli BL21DE3 Star, pET21b
Method: (§1) A Bruker Avance III 600 MHz NMR spectrometer equipped with a cryoprobe (CPTCI) and automated sample changer (SampleJet) was used to collect NMR spectra. Sample details are described above. For high-throughput screening data collection, the ^15N-^1H BEST-TROSY (b_trosy3gpph.2) experiment with 64 scans for each of 96 increments and a relaxation delay of 200 ms was run at 318 K for a total data acquisition time of 35 min per sample. To achieve enhanced signal-to-noise ratio, follow-up titrations and control experiments were conducted using the BEST-TROSY pulse program with 200 scans per 96 increments at 318 K, for a total data acquisition time of 110 min per sample. Data were processed using Bruker Topspin 3.6 using a Gaussian window function with a line broadening of -10 and a Gaussian max of 0.1 in both dimensions. NMR data were then further processed and analyzed using NMR-FAM SPARKY, plotted using GraphPad Prism 9, and prepared for publication figures using Affinity Designer.
2D ^15 N-^1H HSQC NMR data used to calculate dissociations constant (KD) values by first normalizing 2D data using the established formula ([78]) (Equation 1):(1) δ(1H,15N)=√(1/2[δ2H+.14∗δ2N]) Where δ(1H,15N) is the square root of linear chemical shifts in each respective dimension, δH and δN with the Nitrogen normalization factor of 0.14.

[2] = test system: T2, C99 T761A; experiment: TROSY NMR titration of C99 T761A mutant by verteporfin; assay type: binding, human; conditions: LMPG micelles, up to 300 µM verteporfin, n=1
T2 construct: the transmembrane 99 residue C-terminal (C99) domain; hexa-His; made in house
Method: as §1

[3] = test system: T3, C99; experiment: 2D 1H,1H-NOESY of 1:1 verteporfin:C99 mixture; assay type: binding, human; conditions: 300 μM C99 and 300 μM verteporfin, 2.5% d27-LMPG
T3 construct: the transmembrane 99 residue C-terminal (C99) domain; His tag (either the C-terminal hexa-His that is kept, or the N-terminal His of C99-NT2 removed by thrombin); made in house; host or cells: E. coli BL21DE3
Method: A sample was prepared containing 300 μM C99 and 300 μM Verteporfin in 2.5% d^27-LMPG (deuterated alkyl chains), 50 mM d^4-Imidazole (deuterated imidazole), 100 mM NaCl, 0.5 mM EDTA, 1 mM DSS, pH 6.5 in 85% D2O. The ^1H-^1H NOESY experiment was recorded on the 800 MHz spectrometer with a mixing time of 120 ms, relaxation delay of 2 s, 4k × 1k data acquisition matrix, using the standard Bruker pulse program (noesyphpr).

[4] = test system: T4, C99; experiment: Glutaraldehyde cross-linking of verteporfin–C99 mixtures; parameters: species or system human; conditions: LMPG micelles, versus DMSO control, n=3
T4 construct: the transmembrane 99 residue C-terminal (C99) domain; made in house; host or cells: E. coli BL21DE3, pET21b
Method: C-terminally His-tagged C99 was expressed from E. coli as mentioned above, and the sample was eluted into a buffer containing 0.1% w/v LMPG, 350 mM Imidazole, 100 mM NaCl, pH 7.8. The protein sample was buffer swapped into GA X-linking buffer containing 0.25% w/v LMPG, 250 mM imidazole, 100 mM NaCl, pH 7.8, and the protein was concentrated to a stock of 300 μM C99. Protein stocks were either used right away or flash frozen in LN2 and stored at −80 °C until further use.
On the day of the experiment, fresh glutaraldehyde (from 25% w/v ampoule) was used to prepare serial dilutions and stored on ice. Reaction volumes were set at 50 μl, containing 30 μM C99, 25 mM Imidazole, 100 mM NaCl, pH 7.8, and 2.5% w/v LMPG. For a typical GA reaction setup, the following components were added to Eppendorf tubes in this specific order: 5 μl of 300 μM C99 was added to the bottom of the tube, followed by 6 μl of 20% w/w LMPG solution, then the sample was diluted to 50 μl using 39 μl of GA X-linking buffer. The sample was mixed by vortex and allowed to sit for at least 30 min. After incubation, 1 μl of Verteporfin stock (typically 10 mM in DMSO) was added to the mixture, vortexed, and allowed to incubate for at least another 30 min in the dark. […] Then, SDS loading buffer was added directly to the reaction tubes, and the samples were visualized using SDS-PAGE and analyzed by densitometry using ImageJ. […]

[5] = Verteporfin aggregation and LMPG micelle size (DLS, 1D 1H NMR); assay type: physicochemical
Method: Samples were made according to NMR sample conditions. Solutions were first filtered with a 0.2 μm syringe filter then centrifuged at […] to remove insoluble debris. The solution was then added to the inner chamber of the disposable DLS cuvette. The disposable DLS cuvette was capped and loaded in the DLS instrument. Experiments were carried out at 25 °C. The DLS software (Dynamics 7.5 software; Wyatt Technologies) calculates an apparent hydrodynamic radius (Rh) via the Stokes–Einstein equation (Equation 6):(6) Rh=kT/6πηDt where k is Boltzmann’s constant, T is the absolute temperature, η is sample viscosity, and Dt is the diffusion coefficient. The apparent molecular weight of the detergent or verteporfin particles was calculated in the Dynamics software, as based on the measured apparent radius of hydration, using the assumption that the density of the particle was similar to that of a globular protein.

binding to Notch-1 transmembrane domain ([1]; general statement): did not bind; also recorded: not to bind | state of verteporfin in micelle-free aqueous solution (1H NMR line width) ([5]; 100 μM verteporfin, LMPG below CMC, pH 6.5): aggregate formation | LMPG concentration at which soluble verteporfin aggregates are fully dispersed (DLS) ([5]; 100 μM verteporfin, n = 3): 50 mM
Substance: verteporfin
binding to Notch-1 TM/JM ([1]; D6PC/DMPC bicelles): only minor spectral changes at very high concentrations; also recorded: does not bind | binding to Notch-1 TM/JM ([1]; DDMB micelles): little change in the spectrum of Notch-1 until a concentration of 300 μM; also recorded: does not bind | binding to Notch-1 TM/JM ([1]; LMPG micelles, same conditions as C99 titration): does not bind; also recorded: only minor perturbations of Notch resonances | binding to C99 T761A [2]: complete lack of binding; also recorded: binding was disrupted | direct intermolecular contact with C99 (NOESY cross-peaks) [3]: confirms direct binding | change in C99 oligomeric state (cross-linking) [4]: no change in oligomeric state; also recorded: no increase in higher-order C99 species | effect on LMPG micelle particle size (DLS) ([5]; 0 to 200 μM verteporfin, 2.5% LMPG, n = 3): only modest effects on micelle particle size; also recorded: insensitive
